In patent publication US6403638B1, “2,4-pentadienoic acid derivatives having selective activity for retinoid X (RXR) receptors” (Allergan Sales, Inc., priority 1998, dated 2002):

Tests used:
[1] = biological target: T1, RXRγ (Homo sapiens, UniProt P48443); test: ligand binding assay; settings: read-out: Kd RXR γ binding
T1 construct: expressed in transfected cells
T1 sequence (P48443 1-463): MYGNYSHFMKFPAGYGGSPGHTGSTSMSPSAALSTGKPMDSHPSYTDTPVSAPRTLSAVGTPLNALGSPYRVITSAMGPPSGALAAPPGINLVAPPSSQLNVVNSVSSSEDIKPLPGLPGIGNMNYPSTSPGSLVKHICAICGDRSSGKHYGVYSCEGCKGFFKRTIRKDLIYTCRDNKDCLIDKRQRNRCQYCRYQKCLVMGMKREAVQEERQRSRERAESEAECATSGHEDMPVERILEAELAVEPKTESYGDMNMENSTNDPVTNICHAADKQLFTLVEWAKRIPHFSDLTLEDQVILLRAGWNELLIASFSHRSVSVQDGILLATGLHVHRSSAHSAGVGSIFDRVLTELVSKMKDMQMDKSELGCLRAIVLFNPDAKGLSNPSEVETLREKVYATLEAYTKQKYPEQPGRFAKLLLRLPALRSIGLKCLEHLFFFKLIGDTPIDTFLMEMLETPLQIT
Excerpt: (§1) A holoreceptor transactivation assay and a ligand binding assay which measure the antagonist/agonist like activity of the compounds of the invention, or their ability to bind to the several retinoid receptor subtypes, respectively, are described in published PCT Application No. WO WO93/11755 (particularly on pages 30-33 and 37-41) published on Jun. 24, 1993, the specification of which is also incorporated herein by reference. A detailed experimental procedure for holoreceptor transactivations has been described by Heyman et al. Cell 68, 397-406, (1992); Allegretto et al. J. Biol. Chem. 268, 26625-26633, and Mangelsdorf et al. The Retinoids: Biology, Chemistry and Medicine, pp 319-349, Raven Press Ltd., New York, which are expressly incorporated herein by reference. The results obtained in this assay are expressed in EC50 numbers, as they are also in the chimeric receptor transactivation assay. The results of ligand binding assay are expressed in Kd numbers. (See Cheng et as. Biochemical Pharmacology Vol. 22 pp 3099-3108, expressly incorporated herein by reference.)

[2] = biological target: T2, RXRα (Homo sapiens, UniProt P19793); test: ligand binding assay; settings: read-out: Kd RXR α binding
T2 construct: expressed in transfected cells
T2 sequence (P19793 1-462): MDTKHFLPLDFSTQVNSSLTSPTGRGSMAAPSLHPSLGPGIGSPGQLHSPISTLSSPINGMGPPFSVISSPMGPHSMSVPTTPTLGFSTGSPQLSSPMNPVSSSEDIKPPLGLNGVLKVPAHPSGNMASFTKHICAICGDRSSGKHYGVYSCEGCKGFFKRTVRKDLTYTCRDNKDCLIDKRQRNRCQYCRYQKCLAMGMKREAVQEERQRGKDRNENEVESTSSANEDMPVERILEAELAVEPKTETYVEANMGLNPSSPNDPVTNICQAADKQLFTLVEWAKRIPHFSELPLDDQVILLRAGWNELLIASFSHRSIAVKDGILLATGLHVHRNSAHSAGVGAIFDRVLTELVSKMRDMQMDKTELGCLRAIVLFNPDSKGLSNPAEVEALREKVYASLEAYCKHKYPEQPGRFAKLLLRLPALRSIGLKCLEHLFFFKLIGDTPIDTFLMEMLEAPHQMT
Excerpt: as §1

[3] = biological target: T1, RXRγ; test: RXR receptor transactivation assay; type: cell-based; settings: for Emax: read-out: % Eff RXR γ transactivation; for EC50: read-out: EC50 RXR γ transactivation
Excerpt: as §1

[4] = biological target: T3, RXRβ (Homo sapiens, UniProt P28702); test: RXR receptor transactivation assay; type: cell-based; settings: for Emax: read-out: % Eff RXR β transactivation; for EC50: read-out: EC50 RXR β transactivation
T3 construct: expressed in transfected cells
T3 sequence (P28702 1-533): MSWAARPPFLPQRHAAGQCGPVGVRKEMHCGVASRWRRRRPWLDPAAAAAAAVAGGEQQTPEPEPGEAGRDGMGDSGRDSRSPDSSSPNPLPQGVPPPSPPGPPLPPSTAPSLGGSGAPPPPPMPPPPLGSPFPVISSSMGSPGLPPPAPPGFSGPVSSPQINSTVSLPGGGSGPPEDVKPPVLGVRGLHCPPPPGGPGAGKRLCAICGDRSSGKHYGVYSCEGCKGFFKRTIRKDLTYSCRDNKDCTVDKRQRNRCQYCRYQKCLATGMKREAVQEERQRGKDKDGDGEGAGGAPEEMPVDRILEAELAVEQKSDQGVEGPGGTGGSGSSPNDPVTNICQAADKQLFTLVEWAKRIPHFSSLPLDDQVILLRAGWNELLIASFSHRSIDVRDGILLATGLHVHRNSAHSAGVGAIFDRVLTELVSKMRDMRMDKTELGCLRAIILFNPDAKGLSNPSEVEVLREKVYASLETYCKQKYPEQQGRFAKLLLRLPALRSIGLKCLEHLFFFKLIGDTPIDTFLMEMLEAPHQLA
Excerpt: as §1

[5] = biological target: T2, RXRα; test: RXR receptor transactivation assay; type: cell-based; settings: for Emax: read-out: % Eff RXR α transactivation; for EC50: read-out: EC50 RXR α transactivation
Excerpt: The specification of U.S. Pat. No. 5,455,265 is hereby expressly incorporated by reference.
as §1

[6] = biological target: T3, RXRβ; test: ligand binding assay; settings: read-out: Kd RXR β binding
Excerpt: as §1

Kd [1] | Kd [2] | Emax [3] | Emax [4] | EC50 [4] | Emax [5] | EC50 [3] | EC50 [5] | Kd [6] | Compound
7.3 nM | 0.05 nM | 156% | 152% | 0.06 nM | 147% | – | – | – | CCC1(c2cc(C(C)C)cc(C(C)C)c2)CC1/C=C/C(C)=C/C(=O)O (single isomer, unassigned; (+)) [Compound 7]
3.7 nM | 0.03 nM | 86% | 80% | 4.3 nM | 93% | 1.3 nM | 9 nM | – | CCCC1(c2cc(C(C)(C)C)cc(C(C)(C)C)c2)CC1/C=C/C(C)=C/C(=O)O (single isomer, unassigned; (+)) [Compound 14]
0.58 nM | 0.027 nM | 110% | 88% | 1.8 nM | 94% | 0.8 nM | 0.3 nM | – | CCCC1(c2ccc3c(c2)C(C(C)(C)C)=CCC3(C)C)CC1/C=C/C(C)=C/C(=O)O (single isomer, unassigned; (+)) [Compound 22]
1.4 nM | 0.01 nM | 115% | 98% | 0.9 nM | 105% | 0.1 nM | 0.05 nM | – | CCCC1(c2ccc3c(c2)C(C(C)C)=CCC3(C)C)CC1/C=C/C(C)=C/C(=O)O (single isomer, unassigned; (+)) [Compound 34]
3.1 nM | 0.21 nM | 96% | 111% | 0.46 nM | 103% | 0.14 nM | 0.05 nM | – | CC1=CC(C)(C)Oc2cc(C3(C)CC3/C=C/C(C)=C/C(=O)O)ccc21 (centres unmarked) [Compound 28]
4.2 nM | 0.01 nM | 89% | 95% | 0.7 nM | 95% | 0.1 nM | 0.1 nM | 0.8 nM | CC(/C=C/[C@@H]1C[C@]1(C)c1ccc2c(c1)C(C(C)(C)C)=CCC2(C)C)=C\C(=O)O [Compound 57]
3 nM | 0.7 nM | 108% | 109% | 0.3 nM | 109% | 0.1 nM | 0.1 nM | 6 nM | CC(/C=C/[C@@H]1C[C@]1(C)c1ccc2c(c1)C(C(C)C)=CCC2(C)C)=C\C(=O)O [Compound 64, 7(1-Isoproply-4,4-dimethyl-3,4-dihydronaphthalen-7-yl](6S,7S)-6,7-methano-3,7-dimethyl-hepta-2E,4E-dienoic acid]
0.32 nM | 0.05 nM | 116% | 107% | 0.3 nM | 102% | 0.1 nM | 0.1 nM | 2.9 nM | CC(/C=C/[C@@H]1C[C@]1(C)c1ccc2c(c1)OC(C)(C)C=C2C(C)C)=C\C(=O)O [Compound 87]
1.4 nM | 0.17 nM | 105% | 107% | 0.1 nM | 106% | 0.1 nM | 0.1 nM | 1.6 nM | CC(/C=C/[C@@H]1C[C@]1(C)c1ccc2c(c1)OC(C)(C)C=C2C(C)(C)C)=C\C(=O)O [Compound 88]
1.4 nM | 0.19 nM | 112% | 99% | 0.1 nM | 110% | 0.1 nM | 0.1 nM | 0.6 nM | CCCCC1=CC(C)(C)Oc2cc([C@@]3(C)C[C@H]3/C=C/C(C)=C/C(=O)O)ccc21 [Compound 89]
2.8 nM | 0.6 nM | 112% | 85% | 9 nM | 87% | 2 nM | 1 nM | 1.7 nM | CC(/C=C/[C@@H]1C[C@]1(C)c1cc(C(C)(C)C)cc(C(C)(C)C)c1)=C\C(=O)O [Compound 96, 7-(3,5-di-t-Butylphenyl)-(6S,7S)-6,7-methano-3,7-dimethyl-hepta-2E,4E-dienoic acid]
